Measurements as given in patent US7674457B2, “Methods for enhancing neuroprotection via administration of stem cells and blood brain barrier permeabilizers” (University of South Florida, priority 2003, dated 2010).

What was measured:
GDNF, NGF, and BDNF = experiment: Blood levels of trophic factors by ELISA at day 3 after stroke; type: in vivo, Sprague-Dawley rats; details: intravenous
Experimental: Finally, the blood levels of GDNF, NGF, and BDNF were measured to further determine the source of trophic factors. Additional stroke animals (n=6 per group) were subjected to the same surgical/drug regimen as above and were euthanized at day 3 after stroke.

trophic factors = experiment: Trophic factors in peripheral organs (kidneys, lungs, spleens) of stroke animals; type: in vivo, Sprague-Dawley rats; details: intravenous, lungs, and spleens

OC[C@@H](O)[C@@H](O)[C@H](O)[C@H](O)CO [mannitol]
trophic factors in circulating blood (GDNF, NGF, and BDNF): no detectable levels | elevation of trophic factors in peripheral organs, above controls (trophic factors): 8%
